Drawing on patent publication US12319672B2, “Alpha-D-galactopyranoside derivatives” (Idorsia Pharmaceuticals Ltd, priority 2019, dated 2025), this text covers IC50 for 19 compounds.

Assay [1] addresses human Gal-3 (hGal-3) (Homo sapiens (Human), UniProt P17931). As to the kind of experiment: Competitive binding assay: binding of biotinylated hGal-3 to microplate-adsorbed asialofetuin (ASF). The following applies: Activity on hGal-3; mean values of several measurements. As for the experimental part:
(§1) Evaluation of Compound Inhibitory Activity (IC50)
(§2) The inhibitory activity of compounds is determined in competitive binding assays. This spectrophotometric assay measures the binding of biotinylated human Gal-3 (hGal-3) or human Gal-1 (hGal-1), respectively, to a microplate-adsorbed glycoprotein, asialofetuin (ASF) (Proc Natl Acad Sci USA. 2013 Mar. 26; 110(13):5052-7.). Alternatively, and preferably, a human Gal-1 version in which all six cysteines are substituted by serines may be used.
(§3) Briefly, compounds are serially diluted in DMSO (working dilutions). ASF-coated 384 well plates are supplemented with 22.8 μL/well of biotinylated hGal-3 or hGal-1 in assay buffer (i.e. 300-1000 ng/mL biotinylated hGal-3 or hGal-1) to which 1.2 μL of compound working dilutions are added and mixed.
(§4) Plates are incubated for 3 hours at 4° C., then washed with cold assay buffer (3×50 uL), incubated for 1 hour with 25 μL/well of a streptavidin-peroxidase solution (diluted in assay buffer to 80 ng/mL) at 4° C., followed by further washing steps with assay buffer (3×50 uL). Finally, 25 μL/well of ABTS substrate is added.
(§5) The calculated IC50 values may fluctuate depending on the daily assay performance. Fluctuations of this kind are known to those skilled in the art. IC50 values from several measurements are given as mean values.

In assay [2] the target is human Gal-1 (hGal-1). As to the kind of experiment: Competitive binding assay: binding of biotinylated hGal-1 to microplate-adsorbed asialofetuin (ASF). The following applies: Activities on hGal-1; mean values of several measurements. As for the experimental part: as §1, §2, §3, §4, §5
Chain of human Gal-1 (hGal-1) (P09382 2-135 limits assumed): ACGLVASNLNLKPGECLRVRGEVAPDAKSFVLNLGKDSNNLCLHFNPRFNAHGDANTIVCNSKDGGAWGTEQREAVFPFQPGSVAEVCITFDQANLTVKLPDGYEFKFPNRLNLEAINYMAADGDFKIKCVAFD

Chain of human Gal-3 (hGal-3) (P17931 whole entry): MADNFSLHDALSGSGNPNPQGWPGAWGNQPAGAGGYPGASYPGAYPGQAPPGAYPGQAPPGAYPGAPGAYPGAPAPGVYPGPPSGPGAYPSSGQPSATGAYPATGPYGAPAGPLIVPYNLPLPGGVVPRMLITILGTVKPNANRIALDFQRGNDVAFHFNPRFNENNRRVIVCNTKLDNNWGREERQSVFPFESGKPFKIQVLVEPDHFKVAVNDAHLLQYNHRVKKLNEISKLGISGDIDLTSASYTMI

The term IC50 denotes the concentration that inhibits the measured activity by half. A low value points to inhibition by little substance. As for `CO[C@@H]1[C@@H](n2cc(-c3cc(F)c(F)c(F)c3)nn2)[C@@H](O)[C@@H](CO)O[C@@H]1CC1CN(C2CCN(C(=O)N(C)C)CC2)C(=O)O1` (mixture of isomers) [Example 5.11, 4-((RS)-5-(((2R,3R,4S,5R,6R)-5-hydroxy-6-(hydroxymethyl)-3-methoxy-4-(4-(3,4,5-trifluorophenyl)-1H-1,2,3-triazol-1-yl)tetrahydro-2H-pyran-2-yl)methyl)-2-oxooxazolidin-3-yl)-N,N-dimethylpiperidine-1-carboxamide], the results for the IC50 in assay [1] and in assay [2] were 260 nM and 1.5 µM, respectively.

With `CO[C@@H]1[C@@H](n2cc(-c3cc(F)c(F)c(F)c3)nn2)[C@@H](O)[C@@H](CO)O[C@@H]1CC1CN(CC2CCN(C(=O)OC(C)(C)C)CC2)C(=O)O1` (mixture of isomers) [Example 5.16, tert-butyl 4-(((RS)-5-(((2R,3R,4S,5R,6R)-5-hydroxy-6-(hydroxymethyl)-3-methoxy-4-(4-(3,4,5-trifluorophenyl)-1H-1,2,3-triazol-1-yl)tetrahydro-2H-pyran-2-yl)methyl)-2-oxooxazolidin-3-yl)methyl)piperidine-1-carboxylate], the concentration for half-maximal inhibition (IC50) in assay [1] worked out at 630 nM; in assay [2], 42.1 µM.

Take `CO[C@@H]1[C@@H](n2cc(-c3cc(F)c(F)c(F)c3)nn2)[C@@H](O)[C@@H](CO)O[C@@H]1CC1CN(C2CCOCC2)C(=O)O1` (mixture of isomers) [Example 5.17, (RS)-5-(((2R,3R,4S,5R,6R)-5-hydroxy-6-(hydroxymethyl)-3-methoxy-4-(4-(3,4,5-trifluorophenyl)-1H-1,2,3-triazol-1-yl)tetrahydro-2H-pyran-2-yl)methyl)-3-(tetrahydro-2H-pyran-4-yl)oxazolidin-2-one]: the half-maximal inhibitory concentration (IC50) in assay [1] came out at 190 nM; in assay [2], 9.07 µM.

In the case of `CO[C@@H]1[C@@H](n2cc(-c3cc(F)c(F)c(F)c3)nn2)[C@@H](O)[C@@H](CO)O[C@@H]1CC1CN(C2CCN(S(=O)(=O)CC(C)C)CC2)C(=O)O1` (mixture of isomers) [Example 5.18, (RS)-5-(((2R,3R,4S,5R,6R)-5-hydroxy-6-(hydroxymethyl)-3-methoxy-4-(4-(3,4,5-trifluorophenyl)-1H-1,2,3-triazol-1-yl)tetrahydro-2H-pyran-2-yl)methyl)-3-(1-(isobutylsulfonyl)piperidin-4-yl)oxazolidin-2-one], the IC50 in assay [1] stood at 35 nM; in assay [2], 0.64 µM.

Turning to `CO[C@@H]1[C@@H](n2cc(-c3cc(F)c(F)c(F)c3)nn2)[C@@H](O)[C@@H](CO)O[C@@H]1CC1CN(C2CCN(C(=O)CC(C)(C)C)CC2)C(=O)O1` (mixture of isomers) [Example 5.19, (RS)-3-(1-(3,3-dimethylbutanoyl)piperidin-4-yl)-5-(((2R,3R,4S,5R,6R)-5-hydroxy-6-(hydroxymethyl)-3-methoxy-4-(4-(3,4,5-trifluorophenyl)-1H-1,2,3-triazol-1-yl)tetrahydro-2H-pyran-2-yl)methyl)oxazolidin-2-one], the IC50 in assay [1] is 100 nM; in assay [2] it was 1.37 µM.

With `CO[C@@H]1[C@@H](n2cc(-c3cc(F)c(F)c(F)c3)nn2)[C@@H](O)[C@@H](CO)O[C@@H]1CC1CN(C2CCN(S(=O)(=O)C(F)(F)F)CC2)C(=O)O1` (mixture of isomers) [Example 5.20, (RS)-5-(((2R,3R,4S,5R,6R)-5-hydroxy-6-(hydroxymethyl)-3-methoxy-4-(4-(3,4,5-trifluorophenyl)-1H-1,2,3-triazol-1-yl)tetrahydro-2H-pyran-2-yl)methyl)-3-(1-((trifluoromethyl)sulfonyl)piperidin-4-yl)oxazolidin-2-one], the IC50 in assay [1] was determined as 140 nM; in assay [2], 2.31 µM.

As to `CO[C@@H]1[C@@H](n2cc(-c3cc(F)c(F)c(F)c3)nn2)[C@@H](O)[C@@H](CO)O[C@@H]1C[C@@H]1CN(C2CCN([S@+]([O-])C(C)(C)C)CC2)C(=O)O1` (mixture of isomers) [Example 5.21, (RS)-3-((RS)-1-(tert-butylsulfinyl)piperidin-4-yl)-5-(((2R,3R,4S,5R,6R)-5-hydroxy-6-(hydroxymethyl)-3-methoxy-4-(4-(3,4,5-trifluorophenyl)-1H-1,2,3-triazol-1-yl)tetrahydro-2H-pyran-2-yl)methyl)oxazolidin-2-one], the values for the IC50 in assay [1] and in assay [2] were 350 nM and 8.68 µM, respectively.

With `CO[C@@H]1[C@@H](n2cc(-c3cc(F)c(F)c(F)c3)nn2)[C@@H](O)[C@@H](CO)O[C@@H]1CC1CN(C2CCN(S(=O)(=O)C(C)(C)C)CC2)C(=O)O1` (mixture of isomers) [Example 5.22, (RS)-3-(1-(tert-butylsulfonyl)piperidin-4-yl)-5-(((2R,3R,4S,5R,6R)-5-hydroxy-6-(hydroxymethyl)-3-methoxy-4-(4-(3,4,5-trifluorophenyl)-1H-1,2,3-triazol-1-yl)tetrahydro-2H-pyran-2-yl)methyl)oxazolidin-2-one], the values for the IC50 in assay [1] and in assay [2] were 67 nM and 0.76 µM, respectively.

Take `CO[C@@H]1[C@@H](n2cc(-c3cc(F)c(F)c(F)c3)nn2)[C@@H](O)[C@@H](CO)O[C@@H]1CC1CN(C2CCCCC2)C(=O)O1` (mixture of isomers) [Example 5.23, (RS)-3-cyclohexyl-5-(((2R,3R,4S,5R,6R)-5-hydroxy-6-(hydroxymethyl)-3-methoxy-4-(4-(3,4,5-trifluorophenyl)-1H-1,2,3-triazol-1-yl)tetrahydro-2H-pyran-2-yl)methyl)oxazolidin-2-one]: the values for the IC50 in assay [1] and in assay [2] were 140 nM and 6.74 µM, respectively.

On to `CO[C@@H]1[C@@H](n2cc(-c3cc(F)c(F)c(F)c3)nn2)[C@@H](O)[C@@H](CO)O[C@@H]1CN1CC(C2CCN(C(=O)OC(C)(C)C)CC2)OC1=O` (mixture of isomers) [Example 5.24, tert-butyl 4-((RS)-3-(((2R,3R,4S,5R,6R)-5-hydroxy-6-(hydroxymethyl)-3-methoxy-4-(4-(3,4,5-trifluorophenyl)-1H-1,2,3-triazol-1-yl)tetrahydro-2H-pyran-2-yl)methyl)-2-oxooxazolidin-5-yl)piperidine-1-carboxylate], for which the IC50 was 290 nM in assay [1] and 1.81 µM in assay [2].

For `O=c1ccc(C2=NOC(C[C@H]3O[C@H](CO)[C@H](O)[C@H](n4cc(-c5cc(F)c(F)c(F)c5)nn4)[C@H]3O)C2)c[nH]1` (mixture of isomers) [Example 2.02], the values for the IC50 in assay [1] and in assay [2] were 250 nM and 5.08 µM, respectively.

With `O=c1cc(C2=NOC(C[C@H]3O[C@H](CO)[C@H](O)[C@H](n4cc(-c5cc(F)c(F)c(F)c5)nn4)[C@H]3O)C2)cc[nH]1` (mixture of isomers) [Example 2.03], the IC50 is 300 nM in assay [1] and 0.55 µM in assay [2].

Consider `CO[C@@H]1[C@@H](n2cc(-c3cc(F)c(F)c(F)c3)nn2)[C@@H](O)[C@@H](CO)O[C@@H]1CC1CC(c2cc[nH]c(=O)c2)=NO1` (mixture of isomers) [Example 2.06], for which the figures for the IC50 in assay [1] and in assay [2] were 240 nM and 0.26 µM, respectively.

Regarding `CO[C@@H]1[C@@H](n2cc(-c3cc(F)c(F)c(F)c3)nn2)[C@@H](O)[C@@H](CO)O[C@@H]1Cc1cc(C2CCN(C(C)=O)C2)on1` (mixture of isomers) [Example 2.09], the figures for the IC50 in assay [1] and in assay [2] were 660 nM and 8.38 µM, respectively.

With `CO[C@@H]1[C@@H](n2cc(-c3cc(F)c(F)c(F)c3)nn2)[C@@H](O)[C@@H](CO)O[C@@H]1Cc1cc(C2(O)CCCN(C(C)=O)CC2)on1` (mixture of isomers) [Example 2.10], the figures for the 50% inhibitory concentration (IC50) in assay [1] and in assay [2] were 450 nM and 4.47 µM, respectively.

Regarding `CC(=O)O[C@@H]1[C@@H](n2cc(-c3cc(F)c(F)c(F)c3)nn2)[C@@H](O)[C@@H](CO)O[C@@H]1CC1CC(C2CCNCC2)=NO1` (mixture of isomers) [Example 3.14, (2R,3R,4S,5R,6R)-5-hydroxy-6-(hydroxymethyl)-2-(((RS)-3-(piperidin-4-yl)-4,5-dihydroisoxazol-5-yl)methyl)-4-(4-(3,4,5-trifluorophenyl)-1H-1,2,3-triazol-1-yl)tetrahydro-2H-pyran-3-yl acetate], the IC50 was determined as 320 nM in assay [1] and 6.84 µM in assay [2].

For `COC1CCC(N2C[C@@H](C[C@H]3O[C@H](CO)[C@H](O)[C@H](n4cc(-c5cc(F)c(F)c(F)c5)nn4)[C@H]3OC)OC2=O)CC1` (mixture of isomers) [Example 5.25, (RS)-5-(((2R,3R,4S,5R,6R)-5-hydroxy-6-(hydroxymethyl)-3-methoxy-4-(4-(3,4,5-trifluorophenyl)-1H-1,2,3-triazol-1-yl)tetrahydro-2H-pyran-2-yl)methyl)-3-((1r,4R)-4-methoxycyclohexyl)oxazolidin-2-one], the IC50 came to 740 nM in assay [1] and 12.7 µM in assay [2].

Take `COC1CCC(N2C[C@H](C[C@H]3O[C@H](CO)[C@H](O)[C@H](n4cc(-c5cc(F)c(F)c(F)c5)nn4)[C@H]3OC)OC2=O)CC1` (mixture of isomers) [Example 5.26, (RS)-5-(((2R,3R,4S,5R,6R)-5-hydroxy-6-(hydroxymethyl)-3-methoxy-4-(4-(3,4,5-trifluorophenyl)-1H-1,2,3-triazol-1-yl)tetrahydro-2H-pyran-2-yl)methyl)-3-((1s,4S)-4-methoxycyclohexyl)oxazolidin-2-one]: the values for the IC50 in assay [1] and in assay [2] were 1240 nM and 11.8 µM, respectively.

For `COc1ccc(C2=NOC(C[C@H]3O[C@H](CO)[C@H](O)[C@H](n4cc(-c5cc(F)c(F)c(F)c5)nn4)[C@H]3O)C2)cc1` (some centres unmarked) [Ex 1.02], the IC50 in assay [1] stood at 490 nM; in assay [2], 53.9 µM.
